Measured values reported in patent US6391914B1, “Optically active aminopentane derivatives” (Fujimoto Brothers Co., Ltd., priority 1998, dated 2002).
Structures can show the parent of a compound that is named as a salt.

Columns and labels:
[1] = target: α1 receptor; test: Receptor affinity, 3H-prazocin binding; set-up: species or system rats; details: 0.25 nmol/L 3H-prazocin; read-out: Affinity to α1 receptor: concentration showing 50% inhibition between ligand and receptor
Protocol: (§1) The receptor solution was prepared as follows. After the rats were decapitated, brain was immediately isolated and weighed. Thereafter, brain samples were homogenized in ten times volumes of ice-cold 0.35 mol/L sucrose (pH 7.4) using glass homogenizer with Teflon pestle, which was revolted by motors. The homogenate was centrifuged at 4° C. at 900×g for 10 min and the supernatant was, furthermore, recentrifuged at 4° C. at 22,000×g for 20 min. The precipitate was suspended with addition of 5 mmol/L phosphate buffer solution (pH 7.4). After the suspension was incubated at 37° C. for 30 min, the suspension was recentrifuged at 4° C. at 20,000×g for 20 min. The precipitate was resuspended in 10 ml of 5 mmol/L phosphate buffer solution (pH 8.0) to be receptor solution.
^3H-prazocin was used as a ligand. 0.25 nmol/L of ^3H-prazocin, the compounds of the invention and the receptor solution, which were respectively prepared in 5 mmol/L phosphate buffer (pH 8), were put in tube and the mixture was incubated at 25° C. for 90 min. In addition, the nonspecific binding was evaluated with binding value of ^3H-prazocin in the presence of 0.1 μmol/L prazocin. […] After 10 ml of scintillation cocktail was put in it, the radioactivity was measured. Affinity of the compounds of the invention to α1 receptor was evaluated from the inhibition rate of binding between α1 receptor and the ligand.

[2] = target: T1, D1 receptor (Rattus norvegicus, UniProt P18901); test: Receptor affinity, 3H-SCH-23390 binding; set-up: species or system rats
T1 construct: from tissue; host or cells: rat brain membranes
Protocol: as §1, with “The precipitate was resuspended in 10 ml of 5 mmol/L phosphate buffer solution (pH 8.0) to be receptor solution.” left out
(§2) ^3H-prazocin was used as a ligand. […] In addition, the nonspecific binding was evaluated with binding value of ^3H-prazocin in the presence of 0.1 μmol/L prazocin. […] After 10 ml of scintillation cocktail was put in it, the radioactivity was measured. Affinity of the compounds of the invention to α1 receptor was evaluated from the inhibition rate of binding between α1 receptor and the ligand.
(§3) Affinities of the compounds of the invention to receptors of α2, D1, D2, 5-HT1 and 5-HT2 were respectively determined in the same manner, while used 0.7 nmol/L ^3H-rauwolscine, 1.4 nmol/L ^3H-SCH-23390, 2.0 nmol/L spiperone, 2 nmol/L ^3H-5-HT and 0.5 nmol/L ^3H-ketanserin as each ligands. […]

[3] = target: T2, D2 receptor (Rattus norvegicus, UniProt P61169); test: Receptor affinity, spiperone binding; set-up: species or system rats
T2 construct: from tissue; host or cells: rat brain membranes
Protocol: as §1, with “The precipitate was resuspended in 10 ml of 5 mmol/L phosphate buffer solution (pH 8.0) to be receptor solution.” left out
as §2, §3

[4] = system: mice; test: Toxicity test in mice in the single administration; assay type: in vivo; details: 100 mg/kg p.o., observed two weeks

T2 sequence (P61169 whole entry): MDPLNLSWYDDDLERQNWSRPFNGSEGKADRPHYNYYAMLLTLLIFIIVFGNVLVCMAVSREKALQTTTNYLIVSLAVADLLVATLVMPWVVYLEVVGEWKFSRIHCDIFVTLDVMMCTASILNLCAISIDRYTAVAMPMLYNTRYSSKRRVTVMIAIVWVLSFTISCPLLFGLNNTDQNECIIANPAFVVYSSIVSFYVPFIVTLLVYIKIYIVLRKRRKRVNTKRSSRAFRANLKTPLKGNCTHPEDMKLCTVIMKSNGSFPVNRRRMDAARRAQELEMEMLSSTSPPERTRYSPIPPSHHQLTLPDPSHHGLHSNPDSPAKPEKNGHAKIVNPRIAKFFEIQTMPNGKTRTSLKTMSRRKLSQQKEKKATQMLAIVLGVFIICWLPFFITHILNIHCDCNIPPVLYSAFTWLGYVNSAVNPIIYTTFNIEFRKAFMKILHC
T1 sequence (P18901 whole entry): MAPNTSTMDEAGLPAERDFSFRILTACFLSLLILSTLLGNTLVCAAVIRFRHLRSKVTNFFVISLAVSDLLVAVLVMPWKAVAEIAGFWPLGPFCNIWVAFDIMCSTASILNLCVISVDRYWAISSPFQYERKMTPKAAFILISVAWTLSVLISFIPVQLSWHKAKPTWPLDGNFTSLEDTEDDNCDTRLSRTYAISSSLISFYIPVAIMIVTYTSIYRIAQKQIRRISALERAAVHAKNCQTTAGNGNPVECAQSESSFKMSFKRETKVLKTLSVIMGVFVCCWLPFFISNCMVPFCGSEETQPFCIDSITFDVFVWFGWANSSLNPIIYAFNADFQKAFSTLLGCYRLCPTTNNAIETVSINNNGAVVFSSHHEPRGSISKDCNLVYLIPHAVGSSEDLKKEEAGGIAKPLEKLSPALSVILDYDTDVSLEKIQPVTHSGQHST

Compound	IC50 [1] [µM]	IC50 [2] [µM]	IC50 [3] [µM]	Survival of mice after single administration [4]
CCCNC(CCC)Cc1cc2ccccc2o1.Cl (racemic) [Racemic compound, (±)-1-(benzofuran-2-yl)-2-propylaminopentane hydrochloride]	> 10	> 10	> 10	–
CCCNC(CCC)Cc1cc2ccccc2o1 (single isomer, unassigned; (-)) [The compound of the invention, (−)-1-(benzofuran-2-yl)-2-propylaminopentane hydrochloride]	> 10	> 10	> 10	every three numbers of mice survived
